The values below are quoted from earlier work in patent publication US6770295B1 (Pharmacia AB, priority 1998, dated 2004).

SMILES strings stand for the structures.

For the data set the following is noted: following oral administration.

Take `CCN(CC)CC#CCOC(=O)C(O)(c1ccccc1)C1CCCCC1` (racemic) [Oxybutynin, 4-diethylamino-2-butynyl-phenylcyclohexylglycolate]: the duration result is on record as “three to six”.
